# From patent US20070166710A1, “Methods for inhibiting adipogenesis and for treating type 2 diabetes” (priority 2003, published 2007)
# Columns and labels:
# Type in all cases: cell-based
# Shp = Shp expression in primary adipocytes of lean mice cultured with insulin; settings: insulin 50 nM, 60 hours
# Foxa-2 expression = experiment: Foxa-2 gene expression in stromal vascular cells (preadipocytes) of lean and obese mice; settings: 100 nM insulin, 24 and 60 hours
# Experimental: Gene expression was analyzed in a vasculo-stromal fraction (containing preadipocytes) of wildtype and ob/ob mice that were cultured in the absence (−) or presence of 100 nM insulin for 24 and 60 hours.
# Stromal vascular cells from ob/ob mice are known to have increased cell replication in vitro and accumulate little triglycerides when cultured in differentiation medium containing insulin compared to lean control animals (Black et al (1995) J. Cell. Biochem 58:455-463). […] To test if the resistance to differentiation of obese preadipocytes may be mediated by Foxa-2, stromal vascular cells of lean and obese mice were isolated. cultured in the presence or absence of insulin, and gene expression of Foxa-2 and Pref-1 was measured. The mPNA levels were markedly higher in stromal vascular cells of ob/ob mice compared to lean littennates. […] However, Foxa-2 induction in ob/ob preadipocytes was profoundly higher compared to wildtype cells. Furthermore, Foxa-2 expression correlated with induction of Pref-1 gene expression.
# Foxa-2 = experiment: Immunofluorescence of subcellular distribution of endogenous Foxa-2 in HepG2 cells; settings: insulin 50 nM
# Experimental: Immunofluorescence microscopy. Cells were fixed for 30 minutes at room temperature with 2% paraformaldehyde. For immunofluorescent detection of Foxa-1 or Foxa-2, fixed cells were incubated with respective polyclonal antibodies (1:100) (Ruiz i Altaba et al. (1993) Mech. Dev. 44: 91-108) overnight at 4° C. After washing, the cells were treated with anti rabbit IgG secondary antibody linked to Alexa Fluor 488 (Molecular Probes). Immunofluorescent staining was visualized using laser-scanning micrsocopy. To determine whether Akt-induced phosporylation of Foxa-2 has an effect on the subcellular distribution of this transcription factor, the following experiment was performed. HepG2 cells were grown to 60% confluency and endogenous Foxa-1 and Foxa-2 proteins were visualized by immunofluorescence after staining with anti Foxa-1 and Foxa-2 antibodies. Cells were either examined in the absence or presence of insulin (50 nM) and/or Ly294002 or PD98059, and after transfection with either Akt1 or Akt2 expression vectors (FIG. 5B). […] Treatment of cells with MAPKK1 inhibitor PD98059 had no effect on insulin stimulated nuclear exclusion of Foxa-2. The subcellular distribution of Foxa-2 in cells that were stimulated with insulin and expressed a dominant negative form of Akt (Akt[…]) were resistant to nuclear exclusion. […]
substance,measurement,setting,value
insulin: Insulin was from Sigma; hormone used as stimulus,Expression of Shp,Shp,induced
same,expression of Foxa-2,Foxa-2 expression,markedly increased
same,subcellular localization of endogenous Foxa-2,Foxa-2,efficiently excluded from the nucleus
